Results on 3 molecules are retold here after patent US8076347B2, “Compounds and methods for the treatment of cancer” (University of Georgia Research Foundation, Inc., priority 1995, dated 2011).

The subject of one data set is tumor cell lines. The class given is cell-based.
In data set [1] the target is human deoxycytidine kinase (Homo sapiens, UniProt P27707). In words: In vitro enzymatic studies of phosphorylation. Type of data set: biochemical.
The nature of data set [2]: Phosphorylation to nucleotides in vivo.
The subject of a further data set is HepG2 cells. In words: Activity against HepG2 cells in nude mice. The class given is in vivo.
Another data set has as its system Colon 38 tumor cells. In words: In vivo treatment of Colon 38 tumor cells implanted sc in BDF1 mice. Particulars: 25 mg/kg/dose twice daily for five days. The source says: Colon 38 tumor cells were implanted sc to BDF1 mice.
The next data set concerns the target cytidine deaminase (Homo sapiens, UniProt P32320). Briefly: Enzymatic studies of deamination. Type of data set: biochemical.
Another data set relates to Leukemia P388 cells. In words: In vivo treatment of leukemia P388 cells implanted ip in BDF1 mice. The following applies: 25 × 2 × 5 mg/kg ip, twice a day on days 1 to 5.

“Also recorded” adds a separate entry of the source.

Sequence of cytidine deaminase (P32320 whole entry, species assumed): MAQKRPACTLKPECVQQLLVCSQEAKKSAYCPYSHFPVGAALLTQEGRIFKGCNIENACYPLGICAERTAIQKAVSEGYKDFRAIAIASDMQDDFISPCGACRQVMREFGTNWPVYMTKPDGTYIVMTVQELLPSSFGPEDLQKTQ
Sequence of human deoxycytidine kinase (P27707 whole entry): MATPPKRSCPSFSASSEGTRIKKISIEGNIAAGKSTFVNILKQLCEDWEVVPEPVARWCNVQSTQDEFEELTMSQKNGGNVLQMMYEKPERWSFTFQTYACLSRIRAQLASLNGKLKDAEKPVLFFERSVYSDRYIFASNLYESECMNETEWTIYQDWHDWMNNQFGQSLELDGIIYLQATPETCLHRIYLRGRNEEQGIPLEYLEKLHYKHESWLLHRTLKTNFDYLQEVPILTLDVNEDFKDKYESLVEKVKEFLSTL
Source text for Leukemia P388 cells: 10^6 Leukemia P388 cells were implanted ip to BDF1 mice obtained from Southern Research Institute, Alabama.

In the case of `O=c1ccn(C2COC(CO)O2)c(=O)[nH]1` (single isomer, unassigned; (-)) [(−)-OddU, reference compound], the “cytotoxicity in all of the tumor cell lines tested” value in the data set on tumor cell lines is “not toxic”.
For the molecule `Nc1ccn([C@@H]2CO[C@H](CO)O2)c(=O)n1` [(−)-OddC, (−)-(2S,4S)-1-(2-hydroxymethyl-1,3-dioxolan-4-yl)cytosine], in data set [1], the “phosphorylation by human deoxycytidine kinase” value is “can be phosphorylated by this enzyme”. Also, the “phosphorylation to mono-, di- and tri-phosphate nucleotide” value in data set [2] was “can be phosphorylated”. Further, the “activity against HepG2 cells in nude mice” value in the data set on HepG2 cells is “active”. Moreover, the “colon tumor cell growth (FIG. 2)” value in the data set on Colon 38 tumor cells was “retarded”. Moreover, the “effectiveness compared with AraC” value in the data set on tumor cell lines (KB, DU-145 and PC-3 cell lines) is reported as “significantly more effective than AraC”. The “cytotoxicity in all of the tumor cell lines tested” value in the data set on tumor cell lines is “more cytotoxic than AraC”. Besides, at cytidine deaminase, the “deamination / substrate for deaminase” value is reported as “not a substrate for deaminase; also recorded: not deaminated”. For the same molecule, the “Cures/Total (survivors equal or greater than 45 day life span)” value in the data set with Leukemia P388 cells (5 mg/kg) was 1/6. The “ILS (Increased Life Span percent above control)” value in the data set with Leukemia P388 cells (10^6 P388 cells ip on day 0) turned out to be 103%.
As to `Nc1ccn([C@@H]2O[C@H](CO)[C@@H](O)[C@@H]2O)c(=O)n1` [AraC, Cytosine arabinoside, reference compound], the “activity against HepG2 cells in nude mice” value with HepG2 cells is “inactive”.
